Assay results from patent US7109193B2, “Tricyclic diazepines tocolytic oxytocin receptor antagonists” (Wyeth, priority 2001, dated 2006).
Structures can show the parent of a compound that is named as a salt.

target: T1, human vasopressin V2 receptor subtype (Homo sapiens, UniProt P30518); test: Vasopressin binding in Chinese Hamster Ovary cell membranes expressing human vasopressin V2 subtype receptors; settings: 100 nM, CHO cell membranes, [3H]arginine vasopressin, values without parentheses
T1 construct: host or cells: CHO cells (pZeoSV vector)
T1 sequence (P30518 whole entry): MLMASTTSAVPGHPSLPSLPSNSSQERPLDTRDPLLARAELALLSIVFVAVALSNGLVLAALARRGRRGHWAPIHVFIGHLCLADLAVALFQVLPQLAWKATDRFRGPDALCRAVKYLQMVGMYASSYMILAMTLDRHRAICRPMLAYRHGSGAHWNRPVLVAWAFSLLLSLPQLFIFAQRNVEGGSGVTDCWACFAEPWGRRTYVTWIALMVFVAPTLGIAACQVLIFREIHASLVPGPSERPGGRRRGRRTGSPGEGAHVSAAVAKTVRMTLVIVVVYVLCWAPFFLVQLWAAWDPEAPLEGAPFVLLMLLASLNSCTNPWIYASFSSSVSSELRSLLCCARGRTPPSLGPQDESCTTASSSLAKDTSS
In short: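 Radioligand displacement on membranes from CHO cells stably expressing human V2 receptor, 25 to 50 μg protein/well, in 50 mM Tris-HCl pH 7.4 with MgCl2, BSA and protease inhibitors. [^3H]arginine vasopressin (8 nM working solution) incubated 60 min at room temperature; bound label measured by filtration and scintillation counting.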

`Cc1cc(C(=O)N2Cc3ccc(C(=O)N4CCN(CCCN(C)C)CC4)n3Cc3ccccc32)ccc1-c1ccccc1C(F)(F)F` [Example 4, [4-(3-Dimethylaminopropyl)-piperazin-1-yl]-[10-(2-methyl-2′-trifluoromethyl-[1,1′-biphenyl]-4-yl)carbonyl]-[10,11-dihydro-5H-pyrrolo[2,1-c][1,4]benzodiazepin-3-yl]-methanone] gave an inhibition at 0.1 µM of 24%.

same assay, conditions: CHO cell membranes, [3H]arginine vasopressin, values in parentheses

Point of comparison: `COc1cc(C(=O)N2Cc3ccc(C(=O)N4CCC[C@H]4CN4CCCC4)n3Cc3ccccc32)ccc1-c1ccccc1C(F)(F)F` [Example 20, {[10-(2-Methoxy)-2′-trifluoromethyl-[1,1′-biphenyl]-4-yl]carbonyl}-[(2S)-[(2-pyrrolidin-1-yl)methyl]pyrrolidin-1-yl]-10,11-dihydro-5H-pyrrolo[2,1-c][1,4]benzodiazepin-3-yl-methanone], IC50 4360 nM. Against it:
- Cc1cc(C(=O)N2Cc3ccc(C(=O)N4CCN(C)CC4)n3Cc3ccccc32)ccc1-c1ccccc1C(F)(F)F [Example 2, (4-Methyl-piperazin-1-yl)-[10-(2-methyl-2′-trifluoromethyl-[1,1′-biphenyl]-4-yl)-carbonyl]-10,11-dihydro-5H-pyrrolo[2,1-c][1,4]benzodiazepin-3-yl-methanone] — 2.5-fold lower, 1760 nM
- Cc1cc(C(=O)N2Cc3ccc(C(=O)N4CCNCC4)n3Cc3ccccc32)ccc1-c1ccccc1C(F)(F)F [Example 7, 10,11-Dihydro-10-[[2-methyl-2′-trifluoromethyl-[1,1′-biphenyl]-4-yl]carbonyl]-3-(1-piperazinylcarbonyl)-5H-pyrrolo[2,1-c][1,4]benzodiazepine hydrochloride salt] — 1.8-fold lower, 2460 nM
- Cc1cc(C(=O)N2Cc3ccc(C(=O)NC(=N)N)n3Cc3ccccc32)ccc1-c1ccccc1C(F)(F)F [Example 8, N-[(10-{[2-methyl-2′-(trifluoromethyl)[1,1′-biphenyl]-4-yl]carbonyl}-10,11-dihydro-5H-pyrrolo[2,1-c][1,4]benzodiazepin-3-yl)carbonyl]guanidine] — 3-fold lower, 1470 nM
- COc1cc(-c2ccccc2C)ccc1C(=O)N1Cc2ccc(C(=O)N(C)CCCN(C)C)n2Cc2ccccc21 [Example 11, N-Methyl-N-[3-(dimethylamino)propyl]-10-[(3-methoxy-2′-methyl[1,1′-biphenyl]-4-yl)carbonyl]-10,11-dihydro-5H-pyrrolo[2,1-c][1,4]benzodiazepine-3-carboxamide] — 3.2-fold lower, 1350 nM
- COc1cc(-c2ccccc2F)c(Cl)cc1C(=O)N1Cc2cccn2Cc2ccccc21 [Example 18B, 10-{[6-Chloro-3-methoxy-2′-fluoro-[1,1′-biphenyl]-4-yl]carbonyl}-10,11-dihydro-5H-pyrrolo[2,1-c][1,4]benzodiazepine] — 23-fold lower, 189 nM
- COc1cc(C(=O)N2Cc3ccc(C(=O)N(C)CCCN(C)C)n3Cc3ccccc32)ccc1-c1ccccc1C(F)(F)F [Example 21, N-Methyl-[N-(3-dimethylamino)propyl]-10-{[2-methoxy-2′-trifluoromethyl-[1,1′-biphenyl]-4-yl]carbonyl}-10,11-dihydro-5H-pyrrolo[2,1-c][1,4]benzodiazepin-3-carboxamide] — 3.8-fold lower, 1160 nM
- COc1cc(C(=O)N2Cc3ccc(C(=O)N(C)CCN(C)C)n3Cc3ccccc32)ccc1-c1ccccc1C(F)(F)F [Example 22, N-Methyl-[N-(2-dimethylamino)ethyl]-10-{[2-methoxy-2′-trifluoromethyl-[1,1′-biphenyl]-4-yl]carbonyl}-10,11-dihydro-5H-pyrrolo[2,1-c][1,4]benzodiazepine-3-carboxamide] — 3-fold lower, 1430 nM
- O=C(c1ccc(-c2cccc3ccccc23)cc1Cl)N1Cc2cccn2Cc2ccccc21 [Example 24, [2-Chloro-4-(naphthalen-1-yl)phenyl][10,11-dihydro-5H-pyrrolo[2,1-c][1,4]benzodiazepin-10-yl]methanone] — 930-fold lower, 4.7 nM
- Cc1ccc(-c2ccc(C(=O)N3Cc4cccn4Cc4ccccc43)cc2)c2ccccc12 [Example 25, [4-(4-Methyl-naphthalen-1-yl)phenyl][10,11-dihydro-5H-pyrrolo[2,1-c][1,4]benzodiazepin-10-yl]methanone] — 390-fold lower, 11.3 nM
- COc1cc(C(=O)N2Cc3cccn3Cc3ccccc32)ccc1-n1c(C)ccc1C [Example 27, [4-(2,5-Dimethyl-1-H-pyrrol-1-yl)-3-methoxy-phenyl][10,11-dihydro-5H-pyrrolo[2,1-c][1,4]benzodiazepin-10-yl]methanone] — 29-fold lower, 149 nM
- O=C(c1ccc(-c2cccc3ccccc23)nc1)N1Cc2cccn2Cc2ccccc21 [Example 28, [6-(Naphthalen-1-yl)-pyridin-3-yl]-[10,11-dihydro-5H-pyrrolo[2,1-c][1,4]benzodiazepin-10-yl]methanone] — 74-fold lower, 58.8 nM
- COc1cc(-c2ccccc2C(F)(F)F)c(OC)cc1C(=O)N1Cc2cccn2Cc2ccccc21 [Example 32, 10-{[3,6-Dimethoxy-2′-trifluoromethyl-[1,1′-biphenyl]-4-yl]carbonyl}-10,11-dihydro-5H-pyrrolo[2,1-c][1,4]benzodiazepine] — 7.2-fold lower, 605 nM
- COc1cc(-c2ccccc2Cl)c(Cl)cc1C(=O)N1Cc2ccc(C(=O)N(C)C3CCN(C)CC3)n2Cc2ccccc21 [Example 43, 10-[(2′-Chloro-6-chloro-3-methoxy-[1,1′-biphenyl]-4-yl)carbonyl]-N-methyl-N-(1-methylpiperidin-4-yl)-10,11-dihydro-5H-pyrrolo[2,1-c][1,4]benzodiazepine-3-carboxamide] — 11-fold lower, 409 nM
- COc1cc(-c2ccccc2C)c(Cl)cc1C(=O)N1Cc2ccc(C(=O)N3CCN(C)CC3)n2Cc2ccccc21 [Example 47, {10-[(6-Chloro-3-methoxy-2′-methyl[1,1′-biphenyl]-4-yl)carbonyl]-10,11-dihydro-5H-pyrrolo[2,1-c][1,4]benzodiazepin-3-yl}(4-methyl-1-piperazinyl)methanone] — 6-fold lower, 722 nM
- COc1ccccc1-c1ccc(C(=O)N2Cc3ccc(C(=O)N4CCN(C)CC4)n3Cc3ccccc32)cc1 [Example 48, {10-[(2′-Methoxy[1,1′-biphenyl]-4-yl)carbonyl]-10,11-dihydro-5H-pyrrolo[2,1-c][1,4]benzodiazepin-3-yl}(4-methyl-1-piperazinyl)methanone] — 6.2-fold lower, 700 nM
- Cc1cc(C(=O)N2Cc3ccc(C(=O)N4CCCN(C)CC4)n3Cc3ccccc32)ccc1-c1ccccc1C(F)(F)F [Example 59, (4-Methyl-1,4-diazepan-1-yl)(10-{[2-methyl-2′-(trifluoromethyl)[1,1′-biphenyl]-4-yl]carbonyl}-10,11-dihydro-5H-pyrrolo[2,1-c][1,4]benzodiazepin-3-yl)methanone] — 1.9-fold lower, 2310 nM
- COc1cc(-c2ccccc2C)c(Cl)cc1C(=O)N1Cc2ccc(C(=O)N3CCCN(C)CC3)n2Cc2ccccc21 [Example 60, {10-[(6-Chloro-3-methoxy-2′-methyl[1,1′-biphenyl]-4-yl)carbonyl]-10,11-dihydro-5H-pyrrolo[2,1-c][1,4]benzodiazepin-3-yl}(4-methyl-1,4-diazepan-1-yl)methanone] — 3.6-fold lower, 1200 nM
- COc1ccccc1-c1ccc(C(=O)N2Cc3ccc(C(=O)N4CCCN(C)CC4)n3Cc3ccccc32)cc1 [Example 61, {10-[(2′-Methoxy[1,1′-biphenyl]-4-yl)carbonyl]-10,11-dihydro-5H-pyrrolo[2,1-c][1,4]benzodiazepin-3-yl}(4-methyl-1,4-diazepan-1-yl)methanone] — 5.9-fold lower, 745 nM
